In paper PMC6534834 (Breast Cancer Research : BCR, 2019):
Like-named read-outs stand apart in the source and are kept apart here.

Key:
[1] = Nintedanib (BIBF1120-BS and metabolite BIBF1202-ZW) plasma pharmacokinetics (LC-MS/MS); format: in vivo, human; settings: for Mean plasma concentration at steady state (day 29) compared with day 1: level 2; for Mean Cmax / Mean AUC0-last / Mean Tmax / Cmax / Tmax / AUC(0-t): nintedanib species in plasma; for Pharmacokinetic interaction: increase in plasma concentrations: nintedanib and letrozole co-administered, three- for nintedanib, twofold for letrozole (respective); for Cmax / Tmax / AUC(0-t): human, plasma, oral; for AUC(0-t): read-out: Mean AUC0-last
[2] = human, in vivo
[3] = molecular target: T1, aromatase (Homo sapiens, UniProt P11511); design: endogenous in cells; host or cells: Tissues of the trial patients (in vivo); settings: cited from earlier work; for Patients with 17-B-estradiol above the LLD: randomized 3-month crossover letrozole/anastrozole
T1 sequence (P11511 1-503): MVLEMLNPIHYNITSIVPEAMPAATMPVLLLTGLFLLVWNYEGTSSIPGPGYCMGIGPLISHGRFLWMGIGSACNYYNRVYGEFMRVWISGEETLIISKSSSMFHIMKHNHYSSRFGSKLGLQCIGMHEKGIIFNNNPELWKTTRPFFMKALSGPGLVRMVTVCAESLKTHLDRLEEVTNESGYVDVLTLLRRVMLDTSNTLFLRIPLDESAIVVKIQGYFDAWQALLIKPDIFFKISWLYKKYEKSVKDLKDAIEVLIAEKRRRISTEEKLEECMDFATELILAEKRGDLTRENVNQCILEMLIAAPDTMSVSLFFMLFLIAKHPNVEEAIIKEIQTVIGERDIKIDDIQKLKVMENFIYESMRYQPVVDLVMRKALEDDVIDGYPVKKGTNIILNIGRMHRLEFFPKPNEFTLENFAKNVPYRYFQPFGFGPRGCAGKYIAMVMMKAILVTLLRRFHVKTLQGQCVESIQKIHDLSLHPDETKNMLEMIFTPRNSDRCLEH

[4] = molecular target: T1, aromatase; assay: Plasma 17-B-estradiol level (clinical assay, LLD 5 pg/mL), pharmacodynamic marker of aromatase inhibition in patients; format: in vivo; design: endogenous in cells; host or cells: Tissues of the trial patients (in vivo)
[5] = Letrozole plasma pharmacokinetics (UPLC-MS/MS); format: in vivo, human; settings: letrozole in plasma; for Cmax / AUC(0-t) / Tmax: human, plasma, oral; for AUC(0-t): read-out: Mean AUC0-last
[6] = tested on: Cyp3A4; settings: cited from earlier work
[7] = tested on: FGFR; settings: at the RP2D; cited from earlier work
[8] = tested on: tumors with FGFR gene alterations; settings: cited from earlier work
[9] = level 1 (nintedanib 150 mg/bid + letrozole […]), day 1
[10] = level 2 (nintedanib 200 mg/bid + letrozole […]), day 1

Molecule: CN1CCN(CC(=O)N(C)c2ccc(N/C(=C3\C(=O)Nc4cc(C(=O)O)ccc43)c3ccccc3)cc2)CC1 [BIBF1202-ZW]
- Mean plasma concentration at steady state (day 29) compared with day 1 [1]: almost twofold higher
- Mean Cmax [1, 9]: 24 ng/mL
- Mean AUC0-last ([1]; level 1, day 1): 200 ng·h/mL
- Mean Tmax ([1]; level 1, day 1): 1.9 h
- Mean AUC0-last ([1]; level 1, day 29): 367 ng·h/mL
- Mean Cmax ([1]; level 1, day 29): 28 ng/mL
- Mean Tmax ([1]; level 1, day 29): 1.1 h
- Mean Cmax [1, 10]: 41 ng/mL
- Mean AUC0-last ([1]; level 2, day 1): 413 ng·h/mL
- Mean Tmax ([1]; level 2, day 1): 3.3 h
- Mean AUC0-last ([1]; level 2, day 29): 824 ng·h/mL
- Mean Cmax ([1]; level 2, day 29): 67 ng/mL
- Mean Tmax ([1]; level 2, day 29): 3.0 h

Molecule: N#Cc1ccc(C(c2ccc(C#N)cc2)n2cncn2)cc1 [letrozole]
- Pharmacokinetic interaction: increase in plasma concentrations [1]: three- and twofold increases in their respective plasma concentrations
- Grade 3 toxic events attributed to letrozole [2]: No grade 3 toxic events were attributed to letrozole
- Suppression of aromatase activity ([3]; early letrozole trials): > 95%
- Patients with 17-B-estradiol above the LLD [3]: 2%
- Patients with undetectable 17-B-estradiol levels (below LLD 5 pg/mL) ([4]; EOT visit, 4 weeks after ceasing nintedanib administration): 100%
- Patients with undetectable 17-B-estradiol levels (below LLD 5 pg/mL) ([4]; day 1 (baseline), letrozole alone […] for at least 4 weeks): 87.5%
- Cmax ([5]; Level 1 (nintedanib 150 mg/bid + letrozole […]), day 1): 100 ng/mL
- AUC(0-t) ([5]; Level 1, day 1): 2200 ng·h/mL
- Cmax ([5]; Level 1, day 29): 89.4 ng/mL
- Tmax ([5]; Level 1, day 29): 4 h
- AUC(0-t) ([5]; Level 1, day 29): 2060 ng·h/mL
- Cmax ([5]; Level 2 (nintedanib 200 mg/bid + letrozole […]), day 1): 124 ng/mL
- Tmax ([5]; Level 2, day 1): 4 h
- AUC(0-t) ([5]; Level 2, day 1): 2780 ng·h/mL
- Cmax ([5]; Level 2, day 29): 148 ng/mL
- Tmax ([5]; Level 2, day 29): 2 h
- AUC(0-t) ([5]; Level 2, day 29): 3170 ng·h/mL
- Mean Tmax ([5]; Level 1, day 1): 0 h
- Metabolizing enzyme ([6]; no reference given): metabolized by Cyp3A4

Molecule: CCN1CCN(c2ccc(Nc3cc(N(C)C(=O)Nc4c(Cl)c(OC)cc(OC)c4Cl)ncn3)cc2)CC1 [BGJ398]
- Increase in FGF23 concentrations [7]: ~ 50%

Molecule: AZD4547
- Disease stabilization rate ([8]; MATCH arm W, patients with FGFR amplifications): 50%
- Response rate ([8]; arm W of the MATCH trial): 8%

Molecule: COc1cc(OC)cc(N(CCNC(C)C)c2ccc3ncc(-c4cnn(C)c4)nc3c2)c1 [JNJ-42756493]
- Increase in FGF23 concentrations [7]: ~ 20%

Molecule: COC(=O)c1ccc2c(c1)NC(=O)/C2=C(\Nc1ccc(N(C)C(=O)CN2CCN(C)CC2)cc1)c1ccccc1 [nintedanib]
- Cmax [1, 9]: 51 ng/mL
- Tmax ([1]; level 1, day 1): 1.9 h
- AUC(0-t) ([1]; level 1, day 1): 339 ng·h/mL
- Cmax ([1]; level 1, day 29): 50 ng/mL
- Tmax ([1]; level 1, day 29): 1.1 h
- AUC(0-t) ([1]; level 1, day 29): 519 ng·h/mL
- Cmax [1, 10]: 65 ng/mL
- Tmax ([1]; level 2, day 1): 2 h
- AUC(0-t) ([1]; level 2, day 1): 599 ng·h/mL
- Cmax ([1]; level 2, day 29): 92 ng/mL
- Tmax ([1]; level 2, day 29): 2 h
- AUC(0-t) ([1]; level 2, day 29): 941 ng·h/mL
- BIBF1120-BS AUC on day 29 compared with day 1 ([1]; in vivo): almost twofold higher
- Mean plasma concentration at steady state (day 29) compared with day 1 [1]: almost twofold higher
- Pharmacokinetic interaction: increase in plasma concentrations [1]: three- and twofold increases in their respective plasma concentrations
- BIBF1120-BS AUC on day 29 compared with steady-state values reported in phase I studies ([1]; versus nintedanib monotherapy [28], with pemetrexed [27], or paclitaxel plus carboplatin [47]): two to threefold higher
- Metabolizing enzyme ([6]; no reference given): metabolized by Cyp3A4

Molecule: CC(C)(C#N)c1cc(Cn2cncn2)cc(C(C)(C)C#N)c1 [anastrozole]
- Patients with plasma 17-B-estradiol concentrations below the LLD ([3]; n = 191): 83%
- Patients with 17-B-estradiol above the LLD [3]: 37%
- Metabolizing enzyme [6]: metabolized by Cyp3A4
